Where two headings read alike, the source gives them in different places. Positions of bridges follow the written chain, without caps; N, C: chain ends. Non-standard residues stand in square brackets, D forms with d. Residues, ends and D or L forms follow the SMILES beside them. Chains are numbered I, II in the order given. *: point of attachment. NOTA = O=C(O)CN1CCN(CC(=O)O)CCN(CC(=O)*)CC1
What was measured:
[1] = Ex vivo biodistribution in U87.hCXCR4 tumor-bearing mice; parameters: species or system mouse; conditions: female, SCID (CB17.Cg-Prkdc<scid>Lyst<bg-J>/Crl), mouse, iv, total radioactivity, 75 min p.i., mean ± SD; for tissue to tissue ratio at 1.25 h: SUV ratio
[2] = test system: U87.hCXCR4 tumor-bearing mice; experiment: as above; parameters: species or system mouse; conditions: 75 min p.i., mean ± SD
[3] = co-injected AMD3100 5 mg/kg (157 nmol), n = 4
[4] = co-injected DV1-k-(DV3) 7 nmol, n = 3
[5] = co-injected DV1-k-(DV3) 14 nmol, n = 4
[6] = co-injected DV1-k-(DV3) 24 nmol, n = 4
[7] = SUV ratio, co-injected AMD3100 5 mg/kg (157 nmol), n = 4
[8] = SUV ratio, co-injected DV1-k-(DV3) 7 nmol, n = 3
[9] = SUV ratio, co-injected DV1-k-(DV3) 24 nmol, n = 4

Molecule `CC(C)C[C@@H](N)C(=O)NCC(=O)N[C@H](C)C(=O)N[C@H](CO)C(=O)N[C@H](Cc1c[nH]c2ccccc12)C(=O)N[C@H](Cc1c[nH]cn1)C(=O)N[C@H](CCCNC(=N)N)C(=O)N1CCC[C@@H]1C(=O)N[C@H](CC(=O)O)C(=O)N[C@H](CCCCNC(=O)CN1CCN(CC(=O)O)CCN(CC(=O)O)CC1)C(=O)NCCCC[C@@H](NC(=O)[C@H]1CCCN1C(=O)[C@@H](CC(C)C)NC(=O)[C@H]1CCCN1C(=O)[C@@H](CCCNC(=N)N)NC(=O)[C@@H](CCCCN)NC(=O)[C@@H](CCC(N)=O)NC(=O)[C@@H](Cc1ccc(O)cc1)NC(=O)CNC(=O)[C@@H](CC(C)C)NC(=O)[C@@H](CS)NC(=O)[C@@H](CS)NC(=O)[C@@H](CCCCN)NC(=O)[C@@H](CC(=O)O)NC(=O)[C@H]1CCCN1C(=O)[C@@H](CCCNC(=N)N)NC(=O)[C@@H](Cc1c[nH]cn1)NC(=O)[C@@H](Cc1c[nH]c2ccccc12)NC(=O)[C@@H](CO)NC(=O)[C@@H](C)NC(=O)CNC(=O)[C@H](N)CC(C)C)C(=O)O` [[^18F]AlF-NOTA-DV1-k-(DV3)] (I: H-[dL]G[dA][dS][dW][dH][dR][dP][dD][dK][dC][dC][dL]G[dY][dQ][dK][dR][dP][dL][dP][dK]-OH / II: H-[dL]G[dA][dS][dW][dH][dR][dP][dD][dK](NOTA); amide I:22-II:C) has an SUV at 1.25 h ([1]; muscle, co-injected DV1-k-(DV3) 14 nmol, n = 4, read-out: muscle uptake) of 0.2 ± 0.1 SUV, an SUV at 1.25 h ([1]; muscle, co-injected DV1-k-(DV3) 24 nmol, n = 4, read-out: muscle uptake) of 0.2 ± 0.1 SUV and an SUV at 1.25 h ([1]; muscle, tracer alone (0 nmol), n = 4, read-out: muscle uptake) of 0.05 ± 0.02 SUV. It also gave an SUV at 1.25 h ([1]; muscle, with AMD3100 5 mg/kg (157 nmol), co-injected, co-injected AMD3100 5 mg/kg (157 nmol), n = 4, read-out: muscle uptake) of 0.1 ± 0.1 SUV, an SUV at 1.25 h ([1]; pancreas, co-injected AMD3100 5 mg/kg (157 nmol), n = 4, read-out: pancreas uptake) of 0.1 ± 0.1 SUV and an SUV at 1.25 h ([1]; pancreas, co-injected DV1-k-(DV3) 7 nmol, n = 3, read-out: pancreas uptake) of 0.1 ± 0.04 SUV. For the same molecule, the SUV at 1.25 h ([1]; pancreas, co-injected DV1-k-(DV3) 14 nmol, n = 4, read-out: pancreas uptake) was 0.2 ± 0.1 SUV, the SUV at 1.25 h ([1]; pancreas, co-injected DV1-k-(DV3) 24 nmol, n = 4, read-out: pancreas uptake) was 0.1 ± 0.03 SUV and the SUV at 1.25 h ([1]; pancreas, tracer alone (0 nmol), n = 4, read-out: pancreas uptake) was 0.06 ± 0.02 SUV. It also gave an SUV at 1.25 h ([1]; spleen, co-injected AMD3100 5 mg/kg (157 nmol), n = 4, read-out: spleen uptake) of 0.5 ± 0.1 SUV, an SUV at 1.25 h ([1]; spleen, co-injected DV1-k-(DV3) 7 nmol, n = 3, read-out: spleen uptake) of 0.5 ± 0.1 SUV and an SUV at 1.25 h ([1]; spleen, co-injected DV1-k-(DV3) 14 nmol, n = 4, read-out: spleen uptake) of 0.6 ± 0.2 SUV. The SUV at 1.25 h ([1]; spleen, co-injected DV1-k-(DV3) 24 nmol, n = 4, read-out: spleen uptake) was 0.4 ± 0.1 SUV, the SUV at 1.25 h ([1]; spleen, tracer alone (0 nmol), n = 4, read-out: spleen uptake) was 2.5 ± 1 SUV and the tissue to tissue ratio at 1.25 h ([1]; tumor / blood, tracer alone (0 nmol), n = 4, read-out: tumor-to-blood ratio (t/blood)) was 4.6 ± 0.9. For the same molecule, the tissue to tissue ratio at 1.25 h ([1]; tumor / liver, tracer alone (0 nmol), n = 4, read-out: tumor-to-liver ratio (t/liver)) was 0.1 ± 0.02, the tissue to tissue ratio at 1.25 h ([1]; tumor / liver, with unlabelled DV1-k-(DV3) 24 nmol, co-injected, co-injected DV1-k-(DV3) 24 nmol, n = 4, read-out: tumor-to-liver ratio (t/liver)) was 0.9 ± 0.2 and the tissue to tissue ratio at 1.25 h ([1]; tumor / muscle, tracer alone (0 nmol), n = 4, read-out: tumor-to-muscle ratio (t/muscle)) was 12.4 ± 2.9. It also gave a tissue to tissue ratio at 1.25 h ([1]; tumor / muscle, with AMD3100 5 mg/kg (157 nmol), co-injected, co-injected AMD3100 5 mg/kg (157 nmol), n = 4, read-out: tumor-to-muscle ratio (t/muscle)) of 4.2 ± 1.1, a tissue to tissue ratio at 1.25 h ([1]; tumor / muscle, with unlabelled DV1-k-(DV3) 7 nmol, co-injected, co-injected DV1-k-(DV3) 7 nmol, n = 3, read-out: tumor-to-muscle ratio (t/muscle)) of 5.4 ± 2.2 and a tissue to tissue ratio at 1.25 h ([1]; tumor / muscle, with unlabelled DV1-k-(DV3) 14 nmol, co-injected, co-injected DV1-k-(DV3) 14 nmol, n = 4, read-out: tumor-to-muscle ratio (t/muscle)) of 4.8 ± 2.1. It also gave a tissue to tissue ratio at 1.25 h ([1]; tumor / muscle, with unlabelled DV1-k-(DV3) 24 nmol, co-injected, co-injected DV1-k-(DV3) 24 nmol, n = 4, read-out: tumor-to-muscle ratio (t/muscle)) of 3 ± 0.4, an SUV at 1.25 h ([1]; tumor, tracer alone (0 nmol), n = 4, read-out: tumor uptake) of 0.6 ± 0.2 SUV and an SUV at 1.25 h ([1]; tumor, with AMD3100 5 mg/kg (157 nmol), co-injected, co-injected AMD3100 5 mg/kg (157 nmol), n = 4, read-out: tumor uptake) of 0.4 ± 0.2 SUV. It also gave an SUV at 1.25 h ([1]; tumor, with unlabelled DV1-k-(DV3) 7 nmol, co-injected, co-injected DV1-k-(DV3) 7 nmol, n = 3, read-out: tumor uptake) of 0.7 ± 0.1 SUV, an SUV at 1.25 h ([1]; tumor, with unlabelled DV1-k-(DV3) 14 nmol, co-injected, co-injected DV1-k-(DV3) 14 nmol, n = 4, read-out: tumor uptake) of 0.9 ± 0.3 SUV and an SUV at 1.25 h ([1]; tumor, with unlabelled DV1-k-(DV3) 24 nmol, co-injected, co-injected DV1-k-(DV3) 24 nmol, n = 4, read-out: tumor uptake) of 0.6 ± 0.2 SUV. It also gave a tissue to tissue ratio at 1.25 h ([1]; tumor/blood, co-injected DV1-k-(DV3) 7 nmol, n = 3, read-out: tumor-to-blood ratio (t/blood)) of 2.2 ± 0.9, a tissue to tissue ratio at 1.25 h ([1]; tumor/blood, co-injected DV1-k-(DV3) 14 nmol, n = 4, read-out: tumor-to-blood ratio (t/blood)) of 2 ± 0.9 and a tissue to tissue ratio at 1.25 h ([1]; tumor/blood, co-injected DV1-k-(DV3) 24 nmol, n = 4, read-out: tumor-to-blood ratio (t/blood)) of 1.8 ± 0.3. For the same molecule, the tissue to tissue ratio at 1.25 h ([1]; tumor/bone, co-injected AMD3100 5 mg/kg (157 nmol), n = 4, read-out: tumor-to-bone ratio (t/bone)) was 2.6 ± 0.7, the tissue to tissue ratio at 1.25 h ([1]; tumor/bone, co-injected DV1-k-(DV3) 7 nmol, n = 3, read-out: tumor-to-bone ratio (t/bone)) was 2.9 ± 0.3 and the tissue to tissue ratio at 1.25 h ([1]; tumor/bone, co-injected DV1-k-(DV3) 14 nmol, n = 4, read-out: tumor-to-bone ratio (t/bone)) was 3.2 ± 0.4. The tissue to tissue ratio at 1.25 h ([1]; tumor/bone, co-injected DV1-k-(DV3) 24 nmol, n = 4, read-out: tumor-to-bone ratio (t/bone)) was 3.3 ± 0.5, the tissue to tissue ratio at 1.25 h ([1]; tumor/bone, tracer alone (0 nmol), n = 4, read-out: tumor-to-bone ratio (t/bone)) was 1.4 ± 0.5 and the tissue to tissue ratio at 1.25 h ([1]; tumor/liver, co-injected AMD3100 5 mg/kg (157 nmol), n = 4, read-out: tumor-to-liver ratio (t/liver)) was 0.5 ± 0.2. It also gave a tissue to tissue ratio at 1.25 h ([1]; tumor/liver, co-injected DV1-k-(DV3) 7 nmol, n = 3, read-out: tumor-to-liver ratio (t/liver)) of 0.6 ± 0.1, a tissue to tissue ratio at 1.25 h ([1]; tumor/liver, co-injected DV1-k-(DV3) 14 nmol, n = 4, read-out: tumor-to-liver ratio (t/liver)) of 0.8 ± 0.2 and a tissue to tissue ratio at 1.25 h ([1]; tumor/spleen, co-injected AMD3100 5 mg/kg (157 nmol), n = 4, read-out: tumor-to-spleen ratio (t/spleen)) of 0.7 ± 0.2. The tissue to tissue ratio at 1.25 h ([1]; tumor/spleen, co-injected DV1-k-(DV3) 7 nmol, n = 3, read-out: tumor-to-spleen ratio (t/spleen)) was 1.4 ± 0.1, the tissue to tissue ratio at 1.25 h ([1]; tumor/spleen, co-injected DV1-k-(DV3) 14 nmol, n = 4, read-out: tumor-to-spleen ratio (t/spleen)) was 1.4 ± 0.1 and the tissue to tissue ratio at 1.25 h ([1]; tumor/spleen, co-injected DV1-k-(DV3) 24 nmol, n = 4, read-out: tumor-to-spleen ratio (t/spleen)) was 1.6 ± 0.3. It also gave a tissue to tissue ratio at 1.25 h ([1]; tumor/spleen, tracer alone (0 nmol), n = 4, read-out: tumor-to-spleen ratio (t/spleen)) of 0.3 ± 0.1, a bone uptake [2, 3] of 0.1 ± 0.04 SUV and a spleen uptake [2, 3] of 0.5 ± 0.1 SUV. The bone uptake ([2]; co-injected AMD3100 5 mg/kg (157 nmol), n = 4, listed as [18F]AlF-NOTA-DV1-k-(DV3)) was 0.1 ± 0.04 SUV, the bone uptake [2, 4] was 0.2 ± 0.04 SUV and the liver uptake [2, 4] was 1.2 ± 0.1 SUV. For the same molecule, the bone uptake [2, 5] was 0.3 ± 0.1 SUV, the liver uptake [2, 5] was 1.2 ± 0.4 SUV and the bone uptake [2, 6] was 0.2 ± 0.04 SUV. For the same molecule, the liver uptake [2, 6] was 0.7 ± 0.1 SUV, the “tumor-to-blood ratio (t/blood)” value [2, 7] was 1.7 ± 0.5 and the “tumor-to-liver ratio (t/liver)” value [2, 7] was 0.5 ± 0.2. The “tumor-to-liver ratio (t/liver)” value [2, 8] was 0.6 ± 0.1, the “tumor-to-muscle ratio (t/muscle)” value [2, 8] was 5.4 ± 2.2 and the “tumor-to-muscle ratio (t/muscle)” value ([2]; SUV ratio, co-injected DV1-k-(DV3) 14 nmol, n = 4) was 4.8 ± 2.1. For the same molecule, the “tumor-to-liver ratio (t/liver)” value [2, 9] was 0.9 ± 0.2 and the “tumor-to-muscle ratio (t/muscle)” value [2, 9] was 3.0 ± 0.4.
